Consider three compounds from patent US5167947A, “Enhancement of absorption of radioprotective drugs” (Southwest Research Institute, priority 1989, dated 1992).

Values joined by “and” are separate entries in the source; they are usually repeats but may differ in a detail not shown here. Equal values may be shown once. Read-outs that look alike come from different tables or passages of the source.

A short description of data set [1]: intraduodenal administration of ethiofos to Rhesus monkeys, plasma levels. It counts as in vivo. The following applies: Rhesus monkey; for plasma levels on coadministration of ethiofos with EDTA: ethiofos / free and total WR-1065. The protocol:
An ethiofos solution was administered via rapid infusion through an infant nasogastric tube instilled in the duodenum of Rhesus monkeys. X-rays were taken to ensure proper location of the tube prior to drug administration. […] Prior to administration of dosing solution, 10 ml of 1 mM EDTA was predosed into the duodenum over 1 hr using a calibrated infusion pump.
(§1) Ethiofos was separated on a Bioanalytical Systems […] Phase II C18 ODS analytical column with an Uptight guard column packed with Whatman Pellicular C18 37-53 mm material. Amperometric detection was conducted with a Bioanalytical Systems LC 4B amperometric detector with a Hg/Au transducer ell. Detector signal was output to a Waters Associates Model 840 data system.
(§2) A […] portion of blood was immediately treated with […] of chilled (0°-4° C.) 1.0M HC10 containing 1 g/L EDTA. The samples were vortexed and centrifuged at 15,600×g for 45 sec. […] Samples were immediately frozen at -78° C. in a dry ice/2-propanol bath and transferred to a freezer maintained at -78° C.
(§3) The samples were prepared for HPLC analysis by adding 200 ml of buffer (pH 10). Samples were injected onto HPLC Unit A and amperometrically detected with an Hg/Au electrode at +0.25 V. The assay method has been previously described by Swynnerton, McGovern, Nino and Mangold: J. Radiat. Oncol.
(§4) J. Radiat. Oncol. […] Samples were injected on HPLC Unit B and amperometrically detected at +0.15 V.

Data set [2] is described as follows: in situ rat intestinal perfusion of ethiofos: circulating perfusate and portal blood. It counts as in vivo, rat (male Sprague-Dawley). Conditions: for plasma concentration change on addition of Na2 EDTA: 1.0 mM Na2 EDTA vs without; for levels in portal blood samples, change on addition of Na2 EDTA: 1 mM Na2 EDTA vs without, ethiofos / total WR-1065; for level in portal blood: perfusion of [14C]ethiofos in pH-adjusted water, intact ethiofos / total WR-1065. The protocol: Male Sprague-Dawley rats were maintained on a regular diet of rat chow prior to dosing and fasted 16 h before the experiment. Water was available ad libitum.
Rats weighing between 250 g and 325 g were chosen and anesthetized with 50.0 mg/kg sodium pentobarbital ip. The cannulation of the intestine was performed as previously described.
The proximal cannula was inserted through the stomach wall past the pyloric sphincter for experiments which included the bile flow. Experiments which excluded the bile flow were cannulated approximately 3 cm distal to the pyloric spinchter. Five microcuries of (^3 H)PEG 4000 was included in the perfusate to monitor water flux. For some experiments, 1 mCi of (^14 C)ethiofos was added to the reservoir.
Concommitant sampling of blood was accomplished by insertion of a catheter in the portal vein via the ileocecal vein. […] Rectal temperature was monitored in early experiments to assure maintenance of body temperature in this system.
as §1, §2, §3, §4

For data set [3] the following is noted: in vivo; cited from earlier work.
The conditions of data set [4]: cited from earlier work.
In data set [5] the test system is mice. Conditions: cited from earlier work.
The subject of another data set is Rhesus monkeys. The following applies: cited from earlier work.
The conditions of data set [6]: in vivo; cited from earlier work. This is another data set of the same source.
Data set [7] deals with mice. Conditions: intravenous; cited from earlier work.
For data set [8] the following is noted: stomach acid; cited from earlier work.
Another data set concerns circulating calcium. The following applies: human clinical trials; cited from earlier work.
Another data set has as its system dogs. Conditions: cited from earlier work.

In the case of `O=C(O)CN(CCN(CC(=O)O)CC(=O)O)CC(=O)O` [EDTA, ethylenediaminetetraacetic acid], the “absorption of ethiofos with EDTA” value in data set [1] (intraduodenal, awake) is “enhanced the absorption”. Also, in [2] (rat in situ), the “protection of ethiofos degradation in the lumen by EDTA” value is listed as “some protection” and the “rate of absorption of ethiofos with EDTA” value is recorded as “increase the rate of absorption”. In addition, in data set [2] (rat intestinal perfusion of ethiofos), the “EDTA concentration at which increased absorption reaches a maximum” value is “approximately 1 mM”. The “EDTA concentration giving highest ethiofos levels in portal blood” value in [2] (rat, 90 minutes in situ intestinal perfusion) was 1.5 mM.
For `NCCCNCCS` [WR-1065], the “plasma levels on coadministration of ethiofos with EDTA” value in [1] (intraduodenal, awake) was “substantial increase”. For the same compound, in data set [3], the “toxicity of the free thiol relative to the parent drug ethiofos” value is recorded as “much more toxic”. In addition, the “halflife compared with ethiofos” value in [4] (rhesus monkey, in vivo, iv) was “much long halflife”. Also, in [2] (rat), the “plasma concentration change on addition of Na2 EDTA” value is reported as “significant increase” and the “levels in portal blood samples, change on addition of Na2 EDTA” value was “significant increases”. The “metabolite formed in the intestinal lumen” value in data set [2] (rat, from perfusate mass balance) is reported as “major metabolite”. In addition, the “level in portal blood” value in data set [2] (rat, no EDTA) was “comparatively high levels”.
Consider `NCCCNCCSP(=O)(O)O` [ethiofos, S-2-(3-aminopropylamino)ethylphosphorothioic acid], for which the “approximate LD50” value with mice [5] (intraperitoneal) is reported as about 950 mg/kg; with mice [5] (oral) it was about 1500 mg/kg. For the same compound, the “plasma levels on coadministration of ethiofos with EDTA” value in data set [1] (intraduodenal, awake) is given as “detectable levels”. The AUC in data set [1] (in vivo, intraduodenal 150 mg/kg, in the presence of EDTA (47:1 ethiofos to EDTA), read-out: AUC (plasma concentration-time curve)) was 0.55 µM·h. The “protection against X-rays and gamma radiation” value with Rhesus monkeys (Rhesus monkeys, intravenous) is “has been shown to protect”; in the data set on mice [7], “has been shown to protect”; in the data set on dogs (intravenous), “has been shown to protect”. Also, the “protection (oral dosing)” value in the data set on Rhesus monkeys (monkeys, oral) is recorded as “failed to protect”; with dogs (oral), “failed to protect”. The “slowing of stomach motility and gastric emptying” value in data set [6] is “can slow stomach motility and gastric emptying”. Also, the “hydrolysis in the acidic environment of the stomach” value in data set [8] was “can be hydrolyzed”. In the data set on circulating calcium, the “loss of circulating calcium” value is “loss of circulating calcium”. The plasma halflife entry in data set [4] (iv, rhesus monkeys 150 mg/kg) was “approximately 18 minutes”. In data set [4] (rhesus monkeys, iv 150 mg/kg, most within 24 hours), the “ethiofos or its metabolites excreted in the urine within 120 hours” value was 80%. The “disappearance of parent compound from the perfusate” value in data set [2] (rat in situ, [14C]ethiofos in pH-adjusted water, first 30 minutes, no EDTA) was “fairly rapid rate”. For the same compound, the “radioactivity accounted for by ethiofos and measured metabolite (mass balance of perfusate)” value in [2] (rat intestinal perfusate, no EDTA) is on record as “approximately 85%”. Further, the “radioactivity not accounted for by WR-1065 and ethiofos” value in [2] (rat intestinal perfusate, no EDTA, may be disulfides) is 15%. Also, the “plasma concentration change on addition of Na2 EDTA” value in [2] (rat) is listed as “significant increase”. Further, in data set [2] (rat), the “levels in portal blood samples, change on addition of Na2 EDTA” value was “significant increases”. For the same compound, in [2] (rat, 90 min perfusion, pH-adjusted water, no EDTA), the “labelled ethiofos / radioactivity remaining in the circulating perfusate” value is 90.5±1.7% and 90.5±1.74%. For the same compound, the “radioactivity remaining in the circulating perfusate” value in data set [2] (rat, 90 min perfusion, with 1.0 mM Na2 EDTA) was determined as 85.8±1.09%. In addition, the “factor of increase of appearance of ethiofos in rat portal blood” value in data set [2] (rat, EDTA enhancement, 90 minutes in situ perfusion) is on record as 20. In data set [2] (rat, no EDTA), the “level in portal blood” value is “transient and low levels”.
